Here are results for ten compounds from patent publication EP0604800A1, “4- 4- 4-(carboxyalkyl)-phenyl amino carbonyl -phenyl -piperedines as aggregation inhibitors” (Dr. Karl Thomae GmbH, priority 1992, dated 1994).

Where a name gives a salt, the structure may show the parent alone.

One data set concerns Humanthrombozyten. The experiment in a line: Competitive binding of ³H-BIBU 52 / test substance to human platelets. The conditions noted are these: platelet suspension in plasma, ³H-BIBU 52 5 nM, 20 min at room temperature; read-out: Kompetitive Bindung ³H-BIBU 52/Textsubstanz an Humanthrombozyten IC₅₀ (converted). The text has this: 1. Kompetitive Bindung ³H-BIBU 52/Testsubstanz an Humanthrombozyten:
Eine Suspension von Humanthrombozyten in Plasma wird mit ³H-BIBU 52 [= (3S,5S)-5-[(4'-Amidino-4-biphenylyl)oxymethyl]-3-[(carboxyl)methyl]-2-pyrrolidinon[3-³H-4-biphenylyl]), das den literaturbekannten Liganden ¹²⁵ I-Fibrinogen ersetzt, (siehe deutsche Patentanmeldung P 42 14 245.8 der gleichen Anmelderin vom 30. 04. 1992, internes Zeichen: Case 5/1093-FL) und verschiedenen Konzentrationen der zu testenden Substanz inkubiert. Der freie und gebundene Ligand wird durch Zentrifugation getrennt und durch Szintillationszählung quantitativ bestimmt. Aus den Meßwerten wird die Hemmung der ³H-BIBU 52-Bindung durch die Testsubstanz bestimmt.
Hierzu wird aus einer Antikubitalvene Spenderblut entnommen und mit Trinatriumzitrat antikoaguliert (Endkonzentration 13 mM). Das Blut wird 10 Minuten bei 170 x g zentrifugiert und das überstehende plättchenreiche Plasma (PRP) abgenommen. Das Restblut wird zur Gewinnung von Plasma nocheinmal scharf abzentrifugiert. Das PRP wird mit autologem Plasma 1:10 verdünnt. 750 µl werden mit 50 µl physiologischer Kochsalzlösung, 100 µl Testsubstanzlösung, 50 µl ¹⁴C-Sucrose (3.700 Bq) und 50 µl ³H-BIBU 52 (Endkonzentration: 5 nM) bei Raumtemperatur 20 Minuten inkubiert. Zur Messung der unspezifischen Bindung wird anstelle der Testsubstanz 5 µl BIBU 52 (Endkonzentration: 30 µM) eingesetzt. Die Proben werden 20 Sekunden bei 10000 x g zentrifugiert und der Überstand abgezogen. 100 µl hiervon werden zur Bestimmung des freien Liganden gemessen. Das Pellet wird in 500 µl 0,2N NaOH gelöst, 450 µl werden mit 2 ml Szintillator und 25 µl 5N HCl versetzt und gemessen. Das im Pellet noch verbliebene Restplasma wird aus dem ¹⁴C-Gehalt bestimmt, der gebundene Ligand aus der ³H-Messung. Nach Abzug der unspezifischen Bindung wird die Pelletaktivität gegen die Konzentration der Testsubstanz aufgetragen und die Konzentration für eine 50%ige Hemmung der Bindung ermittelt.

The test system of a further data set is Thrombozytenaggregation. The experiment in a line: Collagen-induced platelet aggregation in platelet-rich plasma (Born and Cross). Format: cell-based, Versuchspersonen. The conditions noted are these: 10 min preincubation at 37°C, half-maximal inhibition of change in optical density, read-out: Hemmung der Plättchenaggregation EC₅₀ (converted). An excerpt:
2. Antithrombotische Wirkung Methodik Die Thrombozytenaggregation wird nach der Methode von Born und Cross (J. Physiol. 170, 397 (1964)) in plättchenreichem Plasma gesunder Versuchspersonen gemessen. Zur Gerinnungshemmung wird das Blut mit Natriumcitrat 3,14 % im Volumenverhältnis 1:10 versetzt. Collagen-induzierte Aggregation Der Verlauf der Abnahme der optischen Dichte der Plättchen-Suspension wird nach Zugabe der aggregationsauslösenden Substanz photometrisch gemessen und registriert. Aus dem Neigungswinkel der Dichtekurve wird auf die Aggregationsgeschwindigkeit geschlossen. Der Punkt der Kurve, bei dem die größte Lichtdurchlässigkeit vorliegt, dient zur Berechnung der "optical density". Die Collagen-Konzentration wird möglichst gering gewählt, aber doch so, daß sich eine irreversibel verlaufende Reaktionskurve ergibt. Verwendet wird das handelsübliche Collagen der Firma Hormonchemie, München. Vor der Collagen-Zugabe wird das Plasma jeweils 10 Minuten mit der Substanz bei 37°C inkubiert. Aus den Konzentrations-Wirkungskurven wird die EC₅₀ berechnet, die die Konzentration beschreibt, bei der die Änderung der "optical density" halbmaximal gehemmt ist.

For data set [1], the system named is Collagen-induzierte Thrombozytenaggregation. The experiment in a line: Ex vivo inhibition of collagen-induced platelet aggregation after oral administration. The data set is classed as in vivo, Rhesusaffen. The conditions noted are these: 1 mg/kg, Rhesus monkeys, collagen 2 µg/ml. An excerpt:
Die Hemmung der Thrombozytenaggregation nach oraler Gabe der Prüfsubstanz wird ex vivo an Rhesusaffen ermittelt.
Direkt vor der oralen Verabreichung der in Natrosol suspendierten Prüfsubstanz wird den Tieren eine Blutprobe aus der Kubitalvene als Referenzwert entnommen. Zu definierten Zeiten nach der Substanzgabe werden erneut Blutproben gewonnen und wie folgt untersucht.
Das mit 3,14% Natriumcitrat im Volumenverhältnis 1:10 versetzte Vollblut wird mit 200 g für 15 Minuten zentrifugiert. Der Überstand an plättchenreichem Plasma wird vorsichtig abgehoben. Aus dem erythrozytenreichen Sediment wird durch Zentrifugation mit 4000 g für 10 Minuten das plättchenarme Plasma als Überstand gewonnen.
Die mit Collagen (Hormonchemie, München; 2 µg/ml Endkonzentration im plättchenreichen Plasma) ausgelöste Thrombozytenaggregation in diesen ex vivo Proben wird nach der Methode von Born und Cross (J. Physiol. 170, 397 (1964)) photometrisch gemessen. Die nach Collagenstimulation gemessene größte Lichtdurchlässigkeit des plättchenreichen Plasmas wird mit dem Referenzwert verglichen, um die Hemmung der Aggregation zu den verschiedenen Zeitpunkten der Blutentnahme nach Substanzgabe relativ zum Referenzwert zu bestimmen.

Data set [2] in a line: Tolerability after intravenous administration to mice. Format: in vivo, Mäusen. Particulars: 30 mg/kg, 3 mice each.

Consider `CCCCS(=O)(=O)NC(Cc1ccc(NC(=O)c2cccc(C3CCNCC3)c2)cc1)C(=O)O` (stereo not shown) [Beispiel 3.6, 4-[3-[[4-[2-(n-Butansulfonylamino)-2-carboxy-ethyl]-phenyl]-aminocarbonyl]-phenyl]-piperidin-hydrochlorid], for which the IC50 in the data set with Humanthrombozyten is 14 nM. Also, the EC50 with Thrombozytenaggregation is 120 nM.
As to `O=C(O)CC[C@H]1CC[C@H](NC(=O)c2cccc(C3CCNCC3)c2)CC1` [Beispiel 3.4, 4-[3-[[trans-4-(2-Carboxy-ethyl)-cyclohexyl]-aminocarbonyl]-phenyl]-piperidin-hydrochlorid], the IC50 in the data set on Humanthrombozyten is 2000 nM. Further, the EC50 with Thrombozytenaggregation was 5800 nM.
For `O=C(O)CCc1ccc(NC(=O)c2ccc(C3CCNCC3)cc2)cc1` [Beispiel 3.1, 4-[4-[[4-(2-Carboxy-ethyl)-phenyl]-aminocarbonyl]-phenyl]-piperidin-hydrochlorid], in that order: 1400 nM and 2400 nM.
Take `CCCCS(=O)(=O)NC(Cc1ccc(NC(=O)c2cccc(C3CCNCC3)c2)cc1)C(=O)OC.Cl` (stereo not shown) [5(2), 4-[3-[[4-[2-(n-Butansulfonylamino)-2-(methoxycarbonyl)-ethyl]-phenyl]-aminocarbonyl]-phenyl]-piperidin-hydrochlorid]: the “Dauer der Hemmung der Collagen-induzierten Thrombozytenaggregation ex vivo” value in data set [1] is given as > 2 Stunden.
As to `CCCCS(=O)(=O)NC(Cc1ccc(NC(=O)c2ccc(C3CCNCC3)cc2)cc1)C(=O)OC` (stereo not shown) [Beispiel 2.2, 4-[4-[[4-[2-(n-Butansulfonylamino)-2-(methoxycarbonyl)-ethyl]-phenyl]-aminocarbonyl]-phenyl]-piperidin-hydrochlorid], the IC50 with Humanthrombozyten is 4500 nM. Besides, the EC50 with Thrombozytenaggregation was 3300 nM.
With `CCCCS(=O)(=O)NC(Cc1ccc(NC(=O)c2ccc(C3CCNCC3)cc2)cc1)C(=O)O` (stereo not shown) [Beispiel 3.3, 4-[4-[[4-[2-(n-Butansulfonyl-amino)-2-carboxy-ethyl]-phenyl]-aminocarbonyl]-phenyl]-piperidin-hydrochlorid], the IC50 in the data set on Humanthrombozyten is 17 nM. In addition, in the data set with Thrombozytenaggregation, the EC50 is 260 nM.
For the compound `Cl.O=C(O)CC[C@H]1CC[C@H](NC(=O)c2ccc(C3CCNCC3)cc2)CC1` [Beispiel 3, 4-[4-[[trans-4-(2-Carboxy-ethyl)-cyclohexyl]-aminocarbonyl]-phenyl]-piperidin-hydrochlorid], in the data set with Humanthrombozyten, the IC50 was 190 nM. Moreover, the “gestorbene Tiere” value in data set [2] is listed as “keine Tieren gestorben”. In the data set with Thrombozytenaggregation, the EC50 was 260 nM.
With `COC(=O)CC[C@H]1CC[C@H](NC(=O)c2cccc(C3CCNCC3)c2)CC1` [Beispiel 5, 4-[3-[[trans-4-[2-(Methoxycarbonyl)-ethyl]-cyclohexyl]-aminocarbonyl]-phenyl]-piperidin-hydrochlorid], the IC50 in the data set with Humanthrombozyten was 2900 nM. Besides, in the data set with Thrombozytenaggregation, the EC50 is 5600 nM.
For `COC(=O)CC[C@H]1CC[C@H](NC(=O)c2ccc(C3CCNCC3)cc2)CC1.Cl` [Beispiel 2, 4-[4-[[trans-4-[2-(Methoxycarbonyl)-ethyl]-cyclohexyl]-aminocarbonyl]-phenyl]-piperidin-hydrochlorid], in the data set with Humanthrombozyten, the IC50 is 1100 nM. Moreover, in data set [2], the “gestorbene Tiere” value is on record as “keine Tieren gestorben”. Besides, in data set [1], the “Dauer der Hemmung der Collagen-induzierten Thrombozytenaggregation ex vivo” value is > 2 Stunden. For the same compound, the EC50 in the data set with Thrombozytenaggregation was 840 nM.
With `COC(=O)CCc1ccc(NC(=O)c2ccc(C3CCNCC3)cc2)cc1` [Beispiel 2.1, 4-[4-[[4-[2-(Methoxycarbonyl)-ethyl]-phenyl]-aminocarbonyl]-phenyl]-piperidin-hydrochlorid], the IC50 with Humanthrombozyten was > 100000 nM. The EC50 in the data set with Thrombozytenaggregation was 3300 nM.
